How the values were obtained:
CDK2/Cyclin E1(14-475) = CDK2/Cyclin E1(14-475) (Homo sapiens, UniProt P24941); experiment: Caliper LabChip EZ Reader mobility shift assay, inhibition of CDK2/Cyclin E1 activity; assay type: biochemical; conditions: class symbols A-D
Procedure, shortened: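 Mobility-shift readout of fluorescent peptide (1.5 μM final) phosphorylation by 2.5 nM CDK2/Cyclin E1(14-475) at 100 μM ATP, pH 7.5. Compounds pre-incubated 30 min with enzyme before substrate addition; 100-min reaction halted by EDTA, normalized % activity fitted to four-parameter curve for IC50.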

Kuramochi cells = experiment: BrdU cell proliferation assay (colorimetric ELISA), Kuramochi cells; assay type: cell-based; conditions: class symbols A-D
Procedure, shortened: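 Proliferation was read as BrdU incorporation: a 1 h pulse, then fixation and peroxidase-antibody ELISA at 450 nm, with values normalized to DMSO after empty-well subtraction. Treatment lasted 4 days on Kuramochi cells seeded at 2,000/well, using four 3-fold compound dilutions from 10 mM stocks. RB^KO Kuramochi cells were run in parallel for specificity.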

Row | Compound | IC50 (CDK2/Cyclin E1(14-475)) | IC50 (Kuramochi cells)
1 | CNC(=O)[C@H](CCCc1ccccc1)NC(=O)C1CN(C(=O)Cc2c[nH]c3cccc(C)c23)CC2CN(C(=O)c3ccc(OC(C)C)c(OC)c3)CC21 (stereo partly drawn) [I-217] | > 10 µM | > 10 µM
2 | CNC(=O)[C@H](CCCc1ccccc1)NC(=O)C1CN(C(=O)Cc2cn(CCOC)c3ccccc23)CC2CN(C(=O)c3ccc(OC(C)C)c(OC)c3)CC21 (stereo partly drawn) [I-218] | > 10 µM | > 10 µM
3 | CNC(=O)[C@H](CCCc1ccccc1)NC(=O)C1CN(C(=O)Cc2c[nH]c3ccc(Cl)cc23)CC2CN(C(=O)c3ccc(OC(C)C)c(OC)c3)CC21 (stereo partly drawn) [I-220] | > 10 µM | > 10 µM
4 | CNC(=O)[C@H](CCCc1ccccc1)NC(=O)C1CN(C(=O)Cc2c[nH]c3ccccc23)CC2CN(C(=O)c3ccc(OC(C)C)c(OC)c3)CC21 (stereo partly drawn) [I-223] | > 10 µM | > 10 µM
5 | CNC(=O)[C@H](CCCc1ccccc1)NC(=O)C1CN(C(=O)c2c[nH]c3cc(C)ccc23)CC2CN(C(=O)c3ccc(OC(C)C)c(OC)c3)CC21 (stereo partly drawn) [I-228] | > 10 µM | > 10 µM
6 | CNC(=O)[C@H](CCCc1ccccc1)NC(=O)C1CN(C(=O)Cc2c[nH]c3c(OC)cccc23)CC2CN(C(=O)c3ccc(OC(C)C)c(OC)c3)CC21 (stereo partly drawn) [I-229] | > 10 µM | > 10 µM
7 | CNC(=O)[C@H](CCCc1ccccc1)NC(=O)C1CN(C(=O)Cc2cnccn2)CC2CN(C(=O)c3ccc(OC(C)C)c(OC)c3)CC21 (stereo partly drawn) [I-230] | > 10 µM | > 10 µM
8 | CNC(=O)[C@H](CCCc1ccccc1)NC(=O)C1CN(C(=O)Cc2c[nH]c3cc(OCC4CC4)ccc23)CC2CN(C(=O)c3ccc(OC(C)C)c(OC)c3)CC21 (stereo partly drawn) [I-234] | > 10 µM | > 10 µM
9 | COc1cc(C(=O)N2CC3CN(C(=O)Cc4c[nH]c5cc(Cl)ccc45)CC(C(=O)Nc4ccc(Cc5ccccc5)nc4)C3C2)ccc1OC(C)C (stereo not drawn) [I-241] | > 10 µM | > 10 µM
10 | C[C@@H](OCc1ccc(F)cc1)[C@H](NC(=O)C1CN(C(=O)Cc2c[nH]c3cc(Cl)ccc23)CC2CN(C(=O)c3ccc(OC4CC4)cc3)CC21)C(N)=O (stereo partly drawn) [I-244] | > 10 µM | > 10 µM
11 | C[C@H](OCc1ccc(F)cc1)[C@@H](NC(=O)C1CN(C(=O)Cc2c[nH]c3cc(Cl)ccc23)CC2CN(C(=O)c3ccc(OC4CC4)cc3)CC21)C(N)=O (stereo partly drawn) [I-245] | > 10 µM | > 10 µM
12 | C[C@@H](OCc1ccc(F)cc1)[C@@H](NC(=O)C1CN(C(=O)Cc2c[nH]c3cc(Cl)ccc23)CC2CN(C(=O)c3ccc(OC4CC4)cc3)CC21)C(N)=O (stereo partly drawn) [I-246] | > 10 µM | > 10 µM
13 | CNC(=O)[C@H](CCCc1ccccc1)NC(=O)C1CN(C(=O)Cc2c[nH]c3cc(OC)ccc23)CC2CN(C(=O)c3ccc(Cl)c(Cl)c3)CC21 (stereo partly drawn) [I-247, 2-(3,4-dichlorobenzoyl)-5-(2-(6-methoxy-1H-indol-3-yl)acetyl)-N—((S)-1-(methylamino)-1-oxo-5-phenylpentan-2-yl)octahydro-1H-pyrrolo[3,4-c]pyridine-7-carboxamide] | > 10 µM | > 10 µM
14 | CNC(=O)[C@H](CCCc1ccccc1)NC(=O)C1CN(C(=O)Cc2c[nH]c3cc(OC)ccc23)CC2CN(C(=O)c3ccc(C(F)(F)F)c(Cl)c3)CC21 (stereo partly drawn) [I-248] | > 10 µM | > 10 µM
15 | CNC(=O)[C@@H](NC(=O)C1CN(C(=O)Cc2c[nH]c3cc(Cl)ccc23)CC2CN(C(=O)c3cc(-c4ccccc4)n[nH]3)CC21)[C@H](C)OCC1CCCCC1 (stereo partly drawn) [I-249, 5-(2-(6-chloro-1H-indol-3-yl)acetyl)-N-((2S,3S)-3-(cyclohexylmethoxy)-1-(methylamino)-1-oxobutan-2-yl)-2-(3-phenyl-1H-pyrazole-5-carbonyl)octahydro-1H-pyrrolo[3,4-c]pyridine-7-carboxamide] | > 10 µM | > 10 µM
16 | CNC(=O)[C@@H](NC(=O)C1CN(C(=O)Cc2c[nH]c3cc(Cl)ccc23)CC2CN(C(=O)c3cc(-c4ccccc4)n[nH]3)CC21)[C@@H](C)OCc1ccccc1 (stereo partly drawn) [I-252] | > 10 µM | > 10 µM
17 | CNC(=O)[C@H](CCCc1ccccc1)NC(=O)C1CN(C(=O)Cc2ccnc3ccccc23)CC2CN(C(=O)c3ccc(OC(C)C)c(OC)c3)CC21 (stereo partly drawn) [I-253, 2-(4-isopropoxy-3-methoxybenzoyl)-N—((S)-1-(methylamino)-1-oxo-5-phenylpentan-2-yl)-5-(2-(quinolin-4-yl)acetyl)octahydro-1H-pyrrolo[3,4-c]pyridine-7-carboxamide] | > 10 µM | > 10 µM

The next lines start with results.

Row | IC50 (CDK2/Cyclin E1(14-475)) | Compound | IC50 (Kuramochi cells)
18 | > 10 µM | CNC(=O)[C@H](CCCc1ccccc1)NC(=O)C1CN(C(=O)c2cncc(C)n2)CC2CN(C(=O)c3ccc(OC(C)C)c(OC)c3)CC21 (stereo partly drawn) [I-211] | > 10 µM
19 | > 10 µM | CNC(=O)[C@H](CCCc1ccccc1)NC(=O)C1CN(C(=O)Cc2c[nH]c3cnccc23)CC2CN(C(=O)c3ccc(OC(C)C)c(OC)c3)CC21 (stereo partly drawn) [I-212] | > 10 µM
20 | > 10 µM | CNC(=O)[C@H](CCCc1ccccc1)NC(=O)C1CN(C(=O)c2cccc3cc[nH]c23)CC2CN(C(=O)c3ccc(OC(C)C)c(OC)c3)CC21 (stereo partly drawn) [I-213] | > 10 µM
21 | > 10 µM | CCc1ccc(C(=O)N2CC3CN(C(=O)c4ccc(OC(C)C)c(OC)c4)CC3C(C(=O)N[C@@H](CCCc3ccccc3)C(=O)NC)C2)nc1 (stereo partly drawn) [I-214] | > 10 µM
22 | > 10 µM | CNC(=O)[C@H](CCCc1ccccc1)NC(=O)C1CN(C(=O)c2ccn(C)c2)CC2CN(C(=O)c3ccc(OC(C)C)c(OC)c3)CC21 (stereo partly drawn) [I-215] | > 10 µM
23 | > 10 µM | CNC(=O)[C@H](CCCc1ccccc1)NC(=O)C1CN(C(=O)c2ccc(OC)nn2)CC2CN(C(=O)c3ccc(OC(C)C)c(OC)c3)CC21 (stereo partly drawn) [I-216] | > 10 µM
24 | 0.5 to 5 µM | CNC(=O)[C@H](CCCc1ccccc1)NC(=O)C1CN(C(=O)Cc2c[nH]c3ccc(C)cc23)CC2CN(C(=O)c3ccc(OC(C)C)c(OC)c3)CC21 (stereo partly drawn) [I-219] | > 10 µM
25 | 0.5 to 5 µM | CNC(=O)[C@H](CCCc1ccccc1)NC(=O)C1CN(C(=O)Cc2cn(C)c3cc(Cl)ccc23)CC2CN(C(=O)c3ccc(OC(C)C)c(OC)c3)CC21 (stereo partly drawn) [I-225] | > 10 µM
26 | 0.5 to 5 µM | CNC(=O)[C@H](CCCc1ccccc1)NC(=O)C1CN(C(=O)C(C)c2c[nH]c3cc(Cl)ccc23)CC2CN(C(=O)c3ccc(OC(C)C)c(OC)c3)CC21 (stereo partly drawn) [I-226] | 5 to 10 µM
27 | ≤ 0.5 µM | CNC(=O)[C@H](CCCc1ccccc1)NC(=O)C1CN(C(=O)Cc2c[nH]c3cc(Cl)c(Cl)cc23)CC2CN(C(=O)c3ccc(OC(C)C)c(OC)c3)CC21 (stereo partly drawn) [I-227] | > 10 µM
28 | 5 to 10 µM | CNC(=O)[C@H](CCCc1ccccc1)NC(=O)C1CN(C(=O)Cc2c[nH]c3cc(C)ccc23)CC2CN(C(=O)c3ccc(OC(C)C)c(OC)c3)CC21 (stereo partly drawn) [I-231] | > 10 µM
29 | ≤ 0.5 µM | CNC(=O)[C@H](CCCc1ccccc1)NC(=O)C1CN(C(=O)Cc2c[nH]c3ccc(Br)cc23)CC2CN(C(=O)c3ccc(OC(C)C)c(OC)c3)CC21 (stereo partly drawn) [I-237] | > 10 µM
30 | 0.5 to 5 µM | COc1cc(C(=O)N2CC3CN(C(=O)Cc4c[nH]c5cc(Cl)ccc45)CC(C(=O)Nc4cncc(Cc5ccccc5)c4)C3C2)ccc1OC(C)C (stereo not drawn) [I-238, N-(5-benzylpyridin-3-yl)-5-(2-(6-chloro-1H-indol-3-yl)acetyl)-2-(4-isopropoxy-3-methoxybenzoyl)octahydro-1H-pyrrolo[3,4-c]pyridine-7-carboxamide] | 0.5 to 5 µM
31 | 0.5 to 5 µM | COc1cc(C(=O)N2CC3CN(C(=O)Cc4c[nH]c5cc(Cl)ccc45)CC(C(=O)Nc4ccnc(Cc5ccccc5)c4)C3C2)ccc1OC(C)C (stereo not drawn) [I-239] | > 10 µM
32 | 0.5 to 5 µM | COc1cc(C(=O)N2CC3CN(C(=O)Cc4c[nH]c5cc(Cl)ccc45)CC(C(=O)Nc4cncc(Oc5ccccc5)c4)C3C2)ccc1OC(C)C (stereo not drawn) [I-240] | > 10 µM
33 | 0.5 to 5 µM | CNC(=O)[C@@H](NC(=O)C1CN(C(=O)Cc2c[nH]c3cc(Cl)ccc23)CC2CN(C(=O)c3ccc(OC4CC4)cc3)CC21)[C@@H](C)OCC1CCCCC1 (stereo partly drawn) [I-242, 5-(2-(6-chloro-1H-indol-3-yl)acetyl)-N-((2S,3R)-3-(cyclohexylmethoxy)-1-(methylamino)-1-oxobutan-2-yl)-2-(4-cyclopropoxybenzoyl)octahydro-1H-pyrrolo[3,4-c]pyridine-7-carboxamide] | > 10 µM
34 | 0.5 to 5 µM | C[C@H](OCc1ccc(F)cc1)[C@H](NC(=O)C1CN(C(=O)Cc2c[nH]c3cc(Cl)ccc23)CC2CN(C(=O)c3ccc(OC4CC4)cc3)CC21)C(N)=O (stereo partly drawn) [I-243] | > 10 µM
35 | 0.5 to 5 µM | CNC(=O)[C@@H](NC(=O)C1CN(C(=O)Cc2c[nH]c3cc(Cl)ccc23)CC2CN(C(=O)c3cc(-c4ccccc4)n[nH]3)CC21)[C@H](C)OCc1ccccc1 (stereo partly drawn) [I-250] | > 10 µM
36 | ≤ 0.5 µM | COC(=O)[C@@H](NC(=O)C1CN(C(=O)Cc2c[nH]c3cc(Cl)ccc23)CC2CN(C(=O)c3ccc(OC(C)C)c(OC)c3)CC21)[C@H](C)OCc1ccccc1 (stereo partly drawn) [I-255, methyl (2S,3S)-3-(benzyloxy)-2-(5-(2-(6-chloro-1H-indol-3-yl)acetyl)-2-(4-isopropoxy-3-methoxybenzoyl)octahydro-1H-pyrrolo[3,4-c]pyridine-7-carboxamido)butanoate] | 0.5 to 5 µM
